# Experiments:
# Type in all cases: biochemical
# Yes (h) = Yes (h) (Homo sapiens, UniProt P07947); assay: Yes human kinase assay (glass-fiber filter); conditions: test concentration of 10^−6M; for inhibition at 1 µM: read-out: C11 score (inhibition of Yes human)
# Method in brief: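 Yes (h) (5-10 mU) with 0.1 mg/ml poly(Glu, Tyr) 4:1 in 8 mM MOPS pH 7.0, 0.2 mM EDTA, 10 mM MgAcetate and [γ-^33P-ATP], 40 minutes at room temperature. Stopped with phosphoric acid; substrate-bound ^33P counted on glass-fiber filter by scintillation.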
# Abl (h) = Abl (h) (Homo sapiens, UniProt P00519); assay: Abl human kinase assay (glass-fiber filter); conditions: test concentration of 10^−6M; for inhibition at 1 µM: read-out: C1 score (inhibition of Abl human)
# GSK3B (h) = GSK3B (h) (Homo sapiens, UniProt P49841); assay: GSK3β human kinase assay (glass-fiber filter); conditions: test concentration of 10^−6M; for inhibition at 1 µM: read-out: C8 score (inhibition of GSK3β human)
# Experimental: The in vitro inhibition of a panel of kinases was assessed using either the glass-fiber filter technology as described by Davies, S. P. et al., Biochem J. (2000), 351; p. 95-105.
# (§1) In the glass-fiber filter technology the activity of the kinase of interest is measured using an appropriate substrate that is incubated with the aforementioned kinase protein in the presence of (^33P) radiolabeled ATP. (^33P) Phosphorylation of the substrate is subsequently measured as radioactivity bound on a glass fiber-filter.
# (§2) All kinases are pre-diluted to a 10× working concentration prior to addition into the assay. The composition of the dilution buffer for each kinase is detailed below.
# In a final reaction volume of 25 μl, GSK3B (h) (5-10 mU) is incubated with 8 mM MOPS pH 7.0, 0.2 mM EDTA, 20 μM […](p)EDEEE (phospho GS2 peptide), 10 mM MgAcetate and [γ-^33P-ATP] (specific activity approx. 500 cpm/pmol, concentration as required). The reaction is initiated by the addition of the MgATP mix. After incubation for 40 minutes at room temperature, the reaction is stopped by the addition of 5 μl of a 3% phosphoric acid solution. 10 μl of the reaction is then spotted onto a P30 filtermat and washed three times for 5 minutes in 50 mM phosphoric acid and once in methanol prior to drying and scintillation counting.
# Flt3 (h) = Flt3 (h) (Homo sapiens, UniProt P36888); assay: Flt3 human kinase assay (glass-fiber filter); conditions: test concentration of 10^−6M; for inhibition at 1 µM: read-out: C6 score (inhibition of Flt3 human)
# Method in brief: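 Human Flt3 (5-10 mU) with 50 μM peptide substrate in 8 mM MOPS pH 7.0, 0.2 mM EDTA, 10 mM Mg acetate and [γ-33P]ATP (concentration as required), 40 min at room temperature. Reaction stopped with phosphoric acid; substrate 33P incorporation counted on P30 glass-fiber filter.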
# EGFR (h) = EGFR (h) (Homo sapiens, UniProt P00533); assay: EGFR human kinase assay (glass-fiber filter); conditions: test concentration of 10^−6M
# Experimental: as §1, §2
# (§3) In a final reaction volume of 25 μl, EGFR (h) (5-10 mU) is incubated with 8 mM MOPS pH 7.0, 0.2 mM EDTA, 10 mM MnCl2, 0.1 mg/ml poly(Glu, Tyr) 4:1, 10 mM MgAcetate and [γ-^33P-ATP] (specific activity approx. 500 cpm/pmol, concentration as required). The reaction is initiated by the addition of the MgATP mix. After incubation for 40 minutes at room temperature, the reaction is stopped by the addition of 5 μl of a 3% phosphoric acid solution. 10 μl of the reaction is then spotted onto a Filtermat A and washed three times for 5 minutes in 75 mM phosphoric acid and once in methanol prior to drying and scintillation counting.
# Fes (h) = Fes (h) (Homo sapiens, UniProt P07332); assay: Fes human kinase assay (glass-fiber filter); conditions: test concentration of 10^−6M; for inhibition at 1 µM: read-out: C4 score (inhibition of Fes human)
# Experimental: as §1, §2
# as §3, with “Fes” for “EGFR”, “EDTA,” for “EDTA, 10 mM MnCl2,”
# Lck (h) = Lck (h) (Homo sapiens, UniProt P06239); assay: Lck human kinase assay (glass-fiber filter); conditions: test concentration of 10^−6M; for inhibition at 1 µM: read-out: C9 score (inhibition of Lck human)
# Method in brief: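 Kinase activity measured as transfer of (^33P) from radiolabeled MgATP to substrate, captured on P30 glass-fiber filtermat, washed in 75 mM phosphoric acid and methanol, then scintillation counted.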
# Lyn (h) = Lyn (h) (Homo sapiens, UniProt P07948); assay: Lyn human kinase assay (glass-fiber filter); conditions: test concentration of 10^−6M; for inhibition at 1 µM: read-out: C10 score (inhibition of Lyn human)
# Method in brief: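 Human Lyn (5-10 mU) phosphorylating poly(Glu,Tyr) 4:1 at 0.1 mg/ml with [γ-33P]ATP (concentration as required) in 50 mM Tris pH 7.5, 10 mM Mg acetate, 40 min at room temperature. Stopped with phosphoric acid; substrate-bound radioactivity counted on glass-fibre filter.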
# cSRC (h) = cSRC (h) (Homo sapiens, UniProt P12931); assay: cSRC human kinase assay (glass-fiber filter); conditions: test concentration of 10^−6M; for inhibition at 1 µM: read-out: C3 score (inhibition of cSRC human)
# Method in brief: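 Radiometric assay: kinase and substrate are incubated with [33P]ATP, with the reaction started by MgATP mix. The reaction is spotted on P30 filtermat, washed in 75 mM phosphoric acid and methanol, and the bound 33P is measured by scintillation counting.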
# Fms (h) = Fms (h) (Homo sapiens, UniProt P07333); assay: Fms human kinase assay (glass-fiber filter); conditions: test concentration of 10^−6M; for inhibition at 1 µM: read-out: C7 score (inhibition of Fms human)
# Method in brief: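 Radiometric filter-binding assay: Fms (5-10 mU) with 250 μM peptide substrate and [γ-33P]ATP in 8 mM MOPS pH 7.0, 10 mM Mg acetate, 40 min at room temperature. Reaction stopped with phosphoric acid; substrate-bound 33P counted on P30 filtermat.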
# CSK (h) = CSK (h) (Homo sapiens, UniProt P41240); assay: CSK human kinase assay (glass-fiber filter); conditions: test concentration of 10^−6M; for inhibition at 1 µM: read-out: C2 score (inhibition of CSK human)
# Experimental: as §1, §2
# In a final reaction volume of 25 μl, CSK (h) (5-10 mU) is incubated with 50 mM Tris pH 7.5, 0.1 mM EGTA, 0.1 mM Na3VO4, 0.1% β-mercaptoethanol, 0.1 mg/ml poly(Glu, Tyr) 4:1, 10 mM MnCl2, 10 mM MgAcetate and [γ-^33P-ATP] (specific activity approx. 500 cpm/pmol, concentration as required). The reaction is initiated by the addition of the MgATP mix. After incubation for 40 minutes at room temperature, the reaction is stopped by the addition of 5 μl of a 3% phosphoric acid solution. 10 μl of the reaction is then spotted onto a Filtermat A and washed three times for 5 minutes in 75 mM phosphoric acid and once in methanol prior to drying and scintillation counting.
# Chain of Fms (h) (P07333 20-972): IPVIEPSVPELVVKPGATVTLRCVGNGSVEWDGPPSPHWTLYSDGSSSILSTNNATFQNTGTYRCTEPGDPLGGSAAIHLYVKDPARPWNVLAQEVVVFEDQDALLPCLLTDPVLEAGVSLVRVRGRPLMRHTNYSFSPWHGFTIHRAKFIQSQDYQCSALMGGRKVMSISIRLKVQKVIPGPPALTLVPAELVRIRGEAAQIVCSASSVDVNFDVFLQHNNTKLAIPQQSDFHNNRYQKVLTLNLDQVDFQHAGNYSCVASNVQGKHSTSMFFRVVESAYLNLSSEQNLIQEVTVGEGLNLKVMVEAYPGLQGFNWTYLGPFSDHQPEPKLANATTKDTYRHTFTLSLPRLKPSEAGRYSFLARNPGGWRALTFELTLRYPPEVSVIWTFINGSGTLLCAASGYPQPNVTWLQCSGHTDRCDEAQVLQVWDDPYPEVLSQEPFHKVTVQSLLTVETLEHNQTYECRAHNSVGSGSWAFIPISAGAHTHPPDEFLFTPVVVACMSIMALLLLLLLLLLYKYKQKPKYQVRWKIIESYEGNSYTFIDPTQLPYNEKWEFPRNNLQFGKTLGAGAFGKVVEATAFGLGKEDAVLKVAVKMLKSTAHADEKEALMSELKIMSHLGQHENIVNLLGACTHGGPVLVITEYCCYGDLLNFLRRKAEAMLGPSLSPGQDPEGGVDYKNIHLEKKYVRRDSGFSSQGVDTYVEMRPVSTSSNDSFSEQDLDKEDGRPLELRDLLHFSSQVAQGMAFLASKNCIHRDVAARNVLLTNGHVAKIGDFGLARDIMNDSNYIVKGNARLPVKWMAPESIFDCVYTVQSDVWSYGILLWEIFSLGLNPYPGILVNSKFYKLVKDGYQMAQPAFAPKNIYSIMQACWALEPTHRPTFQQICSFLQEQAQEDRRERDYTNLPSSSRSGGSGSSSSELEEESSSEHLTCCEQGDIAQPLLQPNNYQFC
# Chain of Lck (h) (P06239 whole entry): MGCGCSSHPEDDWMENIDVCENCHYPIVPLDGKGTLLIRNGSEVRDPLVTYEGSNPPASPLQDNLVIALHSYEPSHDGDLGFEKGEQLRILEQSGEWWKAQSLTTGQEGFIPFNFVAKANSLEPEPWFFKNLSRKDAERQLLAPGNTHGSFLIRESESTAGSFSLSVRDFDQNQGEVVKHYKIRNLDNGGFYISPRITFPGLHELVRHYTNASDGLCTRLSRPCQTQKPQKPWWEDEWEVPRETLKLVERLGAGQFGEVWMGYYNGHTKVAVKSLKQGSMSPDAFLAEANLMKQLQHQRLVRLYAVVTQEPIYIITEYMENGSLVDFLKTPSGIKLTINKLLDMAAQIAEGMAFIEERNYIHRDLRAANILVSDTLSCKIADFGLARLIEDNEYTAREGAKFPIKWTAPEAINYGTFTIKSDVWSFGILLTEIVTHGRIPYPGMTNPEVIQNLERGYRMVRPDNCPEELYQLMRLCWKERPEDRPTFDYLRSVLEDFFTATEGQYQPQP
# Chain of Flt3 (h) (P36888 27-993): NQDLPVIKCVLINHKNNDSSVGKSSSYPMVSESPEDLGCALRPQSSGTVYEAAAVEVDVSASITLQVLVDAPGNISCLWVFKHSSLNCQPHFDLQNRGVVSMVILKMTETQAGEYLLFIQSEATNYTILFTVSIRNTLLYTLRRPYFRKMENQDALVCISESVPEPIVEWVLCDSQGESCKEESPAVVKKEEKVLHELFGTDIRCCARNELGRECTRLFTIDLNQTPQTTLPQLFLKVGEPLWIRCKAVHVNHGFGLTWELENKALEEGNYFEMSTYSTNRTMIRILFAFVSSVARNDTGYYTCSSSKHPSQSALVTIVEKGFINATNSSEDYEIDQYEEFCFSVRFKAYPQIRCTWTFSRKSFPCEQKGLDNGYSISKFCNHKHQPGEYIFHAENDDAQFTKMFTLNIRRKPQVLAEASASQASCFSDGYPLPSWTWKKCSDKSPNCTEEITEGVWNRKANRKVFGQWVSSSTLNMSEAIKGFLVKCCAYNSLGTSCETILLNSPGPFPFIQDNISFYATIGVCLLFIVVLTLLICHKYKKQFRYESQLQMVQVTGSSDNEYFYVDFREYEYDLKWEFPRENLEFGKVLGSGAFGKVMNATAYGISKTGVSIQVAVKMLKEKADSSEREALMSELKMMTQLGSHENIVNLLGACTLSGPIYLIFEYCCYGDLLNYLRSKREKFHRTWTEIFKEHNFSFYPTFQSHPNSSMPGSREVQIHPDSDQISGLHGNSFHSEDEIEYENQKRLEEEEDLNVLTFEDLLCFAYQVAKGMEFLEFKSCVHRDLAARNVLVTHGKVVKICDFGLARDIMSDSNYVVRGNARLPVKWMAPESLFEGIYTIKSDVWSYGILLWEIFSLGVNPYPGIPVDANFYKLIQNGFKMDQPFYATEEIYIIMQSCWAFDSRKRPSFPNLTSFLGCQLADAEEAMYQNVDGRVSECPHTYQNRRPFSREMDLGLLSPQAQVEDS
# Chain of Fes (h) (P07332 whole entry): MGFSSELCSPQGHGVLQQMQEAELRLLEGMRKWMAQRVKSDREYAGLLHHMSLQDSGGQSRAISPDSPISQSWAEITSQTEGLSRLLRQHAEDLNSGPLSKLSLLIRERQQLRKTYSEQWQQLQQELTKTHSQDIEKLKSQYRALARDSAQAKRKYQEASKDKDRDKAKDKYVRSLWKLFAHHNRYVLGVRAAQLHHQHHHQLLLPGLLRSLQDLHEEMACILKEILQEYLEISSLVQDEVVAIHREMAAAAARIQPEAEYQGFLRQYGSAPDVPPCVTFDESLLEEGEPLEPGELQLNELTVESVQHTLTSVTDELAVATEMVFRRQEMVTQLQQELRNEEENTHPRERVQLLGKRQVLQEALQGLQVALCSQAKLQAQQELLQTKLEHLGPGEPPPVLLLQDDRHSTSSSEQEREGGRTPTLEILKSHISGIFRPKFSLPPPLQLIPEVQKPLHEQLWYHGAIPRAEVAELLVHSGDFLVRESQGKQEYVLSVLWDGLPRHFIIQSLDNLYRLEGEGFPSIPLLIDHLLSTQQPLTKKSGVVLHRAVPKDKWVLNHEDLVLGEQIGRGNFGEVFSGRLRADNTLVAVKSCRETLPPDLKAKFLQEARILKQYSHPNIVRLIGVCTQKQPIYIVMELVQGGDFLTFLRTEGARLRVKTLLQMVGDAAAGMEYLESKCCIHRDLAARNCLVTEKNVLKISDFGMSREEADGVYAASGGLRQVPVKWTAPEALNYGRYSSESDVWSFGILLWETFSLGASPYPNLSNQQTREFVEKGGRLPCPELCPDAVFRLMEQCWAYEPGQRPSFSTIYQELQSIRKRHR
# Chain of GSK3B (h) (P49841 whole entry): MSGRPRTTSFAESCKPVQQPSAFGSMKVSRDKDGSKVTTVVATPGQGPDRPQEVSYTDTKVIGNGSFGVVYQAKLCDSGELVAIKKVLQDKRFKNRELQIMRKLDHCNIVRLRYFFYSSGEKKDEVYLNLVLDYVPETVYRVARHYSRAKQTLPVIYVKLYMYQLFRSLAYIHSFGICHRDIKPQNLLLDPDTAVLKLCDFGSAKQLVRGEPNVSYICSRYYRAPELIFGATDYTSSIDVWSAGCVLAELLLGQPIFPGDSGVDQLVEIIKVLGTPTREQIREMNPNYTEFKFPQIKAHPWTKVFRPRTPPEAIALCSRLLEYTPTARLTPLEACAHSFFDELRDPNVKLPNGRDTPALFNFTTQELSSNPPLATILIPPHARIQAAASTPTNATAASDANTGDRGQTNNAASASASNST
# Chain of Lyn (h) (P07948 whole entry): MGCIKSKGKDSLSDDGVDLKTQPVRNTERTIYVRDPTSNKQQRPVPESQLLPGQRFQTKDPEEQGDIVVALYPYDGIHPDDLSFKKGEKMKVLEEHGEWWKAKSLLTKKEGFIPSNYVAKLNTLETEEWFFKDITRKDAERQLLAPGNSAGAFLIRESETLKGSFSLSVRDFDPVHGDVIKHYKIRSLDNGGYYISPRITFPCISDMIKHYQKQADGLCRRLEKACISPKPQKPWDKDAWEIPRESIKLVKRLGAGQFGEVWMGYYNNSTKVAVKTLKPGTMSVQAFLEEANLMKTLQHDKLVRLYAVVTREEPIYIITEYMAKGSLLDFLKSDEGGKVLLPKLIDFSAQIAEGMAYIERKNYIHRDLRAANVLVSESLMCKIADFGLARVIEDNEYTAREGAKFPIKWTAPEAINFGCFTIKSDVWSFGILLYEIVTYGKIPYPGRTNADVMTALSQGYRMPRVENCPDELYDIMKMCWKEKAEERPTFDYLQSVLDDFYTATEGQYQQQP
# Chain of CSK (h) (P41240 whole entry): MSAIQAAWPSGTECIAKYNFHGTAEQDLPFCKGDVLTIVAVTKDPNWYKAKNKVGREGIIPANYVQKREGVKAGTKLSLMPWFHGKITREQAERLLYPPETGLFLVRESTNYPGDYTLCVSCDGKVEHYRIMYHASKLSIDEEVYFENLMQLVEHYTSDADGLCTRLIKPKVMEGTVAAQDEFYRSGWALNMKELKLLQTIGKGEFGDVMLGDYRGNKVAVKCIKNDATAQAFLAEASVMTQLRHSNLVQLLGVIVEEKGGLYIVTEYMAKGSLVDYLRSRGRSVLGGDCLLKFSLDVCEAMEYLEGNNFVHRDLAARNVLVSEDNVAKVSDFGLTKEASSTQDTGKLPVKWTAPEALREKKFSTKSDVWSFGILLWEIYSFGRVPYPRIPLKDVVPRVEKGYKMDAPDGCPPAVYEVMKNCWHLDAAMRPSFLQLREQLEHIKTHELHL
molecule,measurement,setting,value
"1H,7H-12,8-metheno-6,2-nitrilo-13,1,5,7,17,20-benzoxapentaazacyclotricosine-3-carbonitrile, 24-chloro-14,15,16,17,18,19,20,21-octahydro-11-methoxy-20-methyl-18-oxo- [Compound 33]",C11 score (inhibition of Yes human),Yes (h),4 (Score 4=>80% inhibition)
same,C1 score (inhibition of Abl human),Abl (h),3 (Score 3=60-80% inhibition)
same,C8 score (inhibition of GSK3β human),GSK3B (h),2 (Score 2=30-60% inhibition)
same,C6 score (inhibition of Flt3 human),Flt3 (h),4 (Score 4=>80% inhibition)
same,C4 score (inhibition of EGFR human),EGFR (h),3 (Score 3=60-80% inhibition)
same,C4 score (inhibition of Fes human),Fes (h),2 (Score 2=30-60% inhibition)
same,C9 score (inhibition of Lck human),Lck (h),3 (Score 3=60-80% inhibition)
same,C10 score (inhibition of Lyn human),Lyn (h),4 (Score 4=>80% inhibition)
same,C3 score (inhibition of cSRC human),cSRC (h),4 (Score 4=>80% inhibition)
"N#Cc1cnc2nc1Nc1cccc(c1)OCCNC(=O)c1cccc(c1)N2 [Compound 20, 14-oxa-2,4,8,17,25-pentaazatetracyclo[17.3.1.1~3,7~.1~9,13~]pentacosa-1(23),3,5,7(25),9,11,13(24),19,21-nonaene-6-carbonitrile, 18-oxo-]",inhibition at 1 µM,Yes (h),10 to 30%
same,inhibition at 1 µM,Abl (h),10 to 30%
same,inhibition at 1 µM,GSK3B (h),60 to 80%
same,inhibition at 1 µM,Flt3 (h),30 to 60%
same,inhibition at 1 µM,Fms (h),10 to 30%
same,inhibition at 1 µM,EGFR (h); read-out: C4 score (inhibition of EGFR human),10 to 30%
same,inhibition at 1 µM,Fes (h),10 to 30%
same,inhibition at 1 µM,cSRC (h),10 to 30%
"O=C1NCCCCCOc2cccc(c2)Nc2ccnc(n2)Nc2cccc1c2 [Compound 22, 14-oxa-2,4,8,20,28-pentaazatetracyclo[20.3.1.1~3,7~.1~9,13~]octacosa-1(26),3,5,7(28),9,11,13(27),22,24-nonaen-21-one]",inhibition at 1 µM,Yes (h),10 to 30%
same,inhibition at 1 µM,Abl (h),10 to 30%
same,inhibition at 1 µM,Flt3 (h),30 to 60%
same,inhibition at 1 µM,Fms (h),10 to 30%
same,inhibition at 1 µM,Fes (h),10 to 30%
same,inhibition at 1 µM,Lck (h),10 to 30%
same,inhibition at 1 µM,Lyn (h),10 to 30%
same,inhibition at 1 µM,cSRC (h),10 to 30%
same,inhibition at 1 µM,CSK (h),10 to 30%
"COc1ccc2cc1OCCCCCCCCOc1ccc(Br)cc1Nc1cc(ncn1)N2 [Compound 38, 1H,7H-2,6: 12,8-dimetheno-13,22,1,3,5,7-benzodioxatetraazacyclotetracosine, 25-bromo-14,15,16,17,18,19,20,21-octahydro-11-methoxy-]",C11 score (inhibition of Yes human),Yes (h),1 (Score 1=10-30% inhibition)
same,C8 score (inhibition of GSK3β human),GSK3B (h),1 (Score 1=10-30% inhibition)
same,C7 score (inhibition of Fms human),Fms (h),2 (Score 2=30-60% inhibition)
same,C4 score (inhibition of EGFR human),EGFR (h),3 (Score 3=60-80% inhibition)
same,C10 score (inhibition of Lyn human),Lyn (h),1 (Score 1=10-30% inhibition)
same,C3 score (inhibition of cSRC human),cSRC (h),1 (Score 1=10-30% inhibition)
same,C2 score (inhibition of CSK human),CSK (h),1 (Score 1=10-30% inhibition)
"COc1ccc2cc1OCCCCCCCCCOc1ccc(Cl)cc1Nc1cc(ncn1)N2 [Compound 39, 1H,7H-2,6: 12,8-dimetheno-14H-13,23,1,3,5,7-benzodioxatetraazacyclopentacosine, 26-chloro-15,16,17,18,19,20,21,22-octahydro-11-methoxy-]",C8 score (inhibition of GSK3β human),GSK3B (h),1 (Score 1=10-30% inhibition)
same,C7 score (inhibition of Fms human),Fms (h),1 (Score 1=10-30% inhibition)
same,C4 score (inhibition of Fes human),Fes (h),1 (Score 1=10-30% inhibition)
same,C9 score (inhibition of Lck human),Lck (h),1 (Score 1=10-30% inhibition)
same,C2 score (inhibition of CSK human),CSK (h),1 (Score 1=10-30% inhibition)
"O=C1COc2cccc(c2)Nc2cc(ncn2)Nc2cccc(c2)CN2CCN1CC2 [Compound 42, 20-oxa-1,8,10,12,14,23-hexaazapentacyclo[21.2.2.1~3,7~.1~9,13~.1~15,19~]triaconta-3,5,7(30),9,11,13(29),15,17,19(28)-nonaen-22-one]",inhibition at 1 µM,Yes (h),60 to 80%
same,inhibition at 1 µM,GSK3B (h),10 to 30%
same,inhibition at 1 µM,Flt3 (h),30 to 60%
same,inhibition at 1 µM,Fms (h),30 to 60%
same,inhibition at 1 µM,Lck (h),30 to 60%
same,inhibition at 1 µM,cSRC (h),10 to 30%
same,inhibition at 1 µM,CSK (h),30 to 60%
"O=C1CCCCNC(=O)c2cccc(c2)Nc2cc(ncn2)Nc2cccc(c2)CN1 [Compound 58, 2,4,6,8,15,21-hexaazatetracyclo[21.3.1.1~3,7~.1~9,13~]nonacosa-1(27),3,5,7(29),9,11,13(28),23,25-nonaene-14,20-dione]",inhibition at 1 µM,Flt3 (h),10 to 30%
same,inhibition at 1 µM,Fms (h),30 to 60%
same,inhibition at 1 µM,Lyn (h),10 to 30%
same,inhibition at 1 µM,CSK (h),60 to 80%
"Cl.Cl.O=C1CNC(=O)Cc2ccc(Cl)cc2Nc2cc(ncn2)Nc2ccc(OCCCN3CCOCC3)c(c2)OCCN1 [Compound 107, 1H,7H-6,2:8,12-dimetheno-13,1,3,5,7,16,19-benzoxahexaazacyclotricosine-17,20(14H)-dione, 24-chloro-15,16,18,19,21-pentahydro-11-[3-(4-morpholinyl)propoxy]-, hydrochloric acid salt (1:2)]",C11 score (inhibition of Yes human),Yes (h),4 (Score 4=>80% inhibition)
same,C1 score (inhibition of Abl human),Abl (h),4 (Score 4=>80% inhibition)
same,C4 score (inhibition of EGFR human),EGFR (h),4 (Score 4=>80% inhibition)
same,C4 score (inhibition of Fes human),Fes (h),4 (Score 4=>80% inhibition)
same,C9 score (inhibition of Lck human),Lck (h),4 (Score 4=>80% inhibition)
same,C10 score (inhibition of Lyn human),Lyn (h),4 (Score 4=>80% inhibition)
same,C3 score (inhibition of cSRC human),cSRC (h),4 (Score 4=>80% inhibition)
same,C2 score (inhibition of CSK human),CSK (h),3 (Score 3=60-80% inhibition)
